Three compounds from publication PMC5818264 (Journal of the American Chemical Society, 2017) can be followed below.

The target of test [1] is T1, MelBEc (MelB homologue from E. coli) (Escherichia coli, UniProt P02921). Description: Trp to dansyl FRET in detergent extract of membrane vesicles. The note with it: […] D^2G; D-NBM-C11; sugar binding site.
The target of test [2] is T2, MelBSt (melibiose permease of Salmonella typhimurium) (Salmonella enterica, UniProt P30878). The description is as above. The note with it: […] D^2G; DDM or D-NBM-C11; sugar binding site.
For test [3], the target named is LeuT (leucine transporter) (Aquifex aeolicus, UniProt O67854). Description: scintillation proximity assay. Format: binding. As to conditions: labelled compound; DDM or NBMs at CMC + […] or […] wt %; room temperature.
Test [4] addresses T2, MelBSt (melibiose permease of Salmonella typhimurium). Description: reversal of Trp to D^2G FRET in detergent extract of membrane vesicles. The note with it: saturating melibiose; […] D^2G; DDM or D-NBM-C11; competitive. The class given is binding.
The target of test [5] is T1, MelBEc (MelB homologue from E. coli). Described as above. Format: binding. The note with it: saturating melibiose; […] D^2G; D-NBM-C11; competitive.

Structures are written as SMILES.

T1 sequence (P02921 2-473): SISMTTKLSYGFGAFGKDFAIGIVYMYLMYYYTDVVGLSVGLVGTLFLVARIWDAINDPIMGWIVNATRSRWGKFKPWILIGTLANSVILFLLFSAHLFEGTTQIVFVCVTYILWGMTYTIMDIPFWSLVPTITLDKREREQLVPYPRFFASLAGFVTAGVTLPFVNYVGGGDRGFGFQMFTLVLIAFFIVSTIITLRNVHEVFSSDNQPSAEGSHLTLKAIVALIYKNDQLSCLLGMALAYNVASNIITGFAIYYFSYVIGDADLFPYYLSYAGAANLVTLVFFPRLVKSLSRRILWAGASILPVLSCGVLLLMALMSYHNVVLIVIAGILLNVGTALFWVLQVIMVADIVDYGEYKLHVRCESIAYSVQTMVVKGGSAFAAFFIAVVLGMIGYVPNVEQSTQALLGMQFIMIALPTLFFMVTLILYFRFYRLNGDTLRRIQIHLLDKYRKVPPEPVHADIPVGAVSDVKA
T2 sequence (P30878 whole entry): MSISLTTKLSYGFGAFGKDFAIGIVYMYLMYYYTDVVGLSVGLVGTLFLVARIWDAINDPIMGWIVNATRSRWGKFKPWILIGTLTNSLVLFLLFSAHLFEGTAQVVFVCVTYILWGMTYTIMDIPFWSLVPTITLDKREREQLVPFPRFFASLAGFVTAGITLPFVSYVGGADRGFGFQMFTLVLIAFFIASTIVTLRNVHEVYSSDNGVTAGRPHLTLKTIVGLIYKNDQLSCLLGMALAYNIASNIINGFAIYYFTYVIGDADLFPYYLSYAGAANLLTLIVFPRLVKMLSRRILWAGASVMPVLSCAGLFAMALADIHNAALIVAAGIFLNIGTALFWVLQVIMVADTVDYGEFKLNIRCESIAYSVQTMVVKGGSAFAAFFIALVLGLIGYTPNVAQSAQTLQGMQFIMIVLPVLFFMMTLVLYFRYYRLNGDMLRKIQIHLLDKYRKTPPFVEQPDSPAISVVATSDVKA

Turning to `CN(C)c1cccc2c(S(=O)(=O)NCCS[C@@H]3O[C@H](CO)[C@H](O)[C@H](O)[C@H]3O)cccc12` [2′-(N-dansyl) aminoalkyl-1-thio-β-D-galactopyranoside], the “Trp to dansyl FRET in detergent extract of membrane vesicles” value is given as “both MelB proteins gave remarkable levels of galactoside binding in D-NBM-C11” in test [1] and “FRET from tryptophan residues (Trp) to a fluorescent ligand” in test [2].

Regarding `CC(C)C[C@H](N)C(=O)O` [[^3H]-Leu], in test [3], the scintillation proximity assay entry was “ability of the transporter to bind radiolabeled leucine [^3H-Leu]”.

With `OC[C@H]1O[C@H](OC[C@H]2OC(O)[C@H](O)[C@@H](O)[C@@H]2O)[C@H](O)[C@@H](O)[C@H]1O` (some centres unmarked) [melibiose], the “reversal of Trp to D^2G FRET in detergent extract of membrane vesicles” value was “MelBSt solubilized in DDM showed an effective melibiose reversal of FRET” in test [4] and “both MelB proteins gave remarkable levels of galactoside binding in D-NBM-C11” in test [5].
